Experimental data taken from patent publication US20060292158A1, “Method for the treatment of cancer using a novel pharmaceutical composition containing at least one dolastatin 10 derivative” (priority 2004, published 2006).
Like-named read-outs stand apart in the source and are kept apart here.

How the values were obtained:
[1] = system: HT-29 human colorectal adenocarcinoma xenograft; assay type: in vivo; conditions: day 31
Experimental: The HT-29 human colorectal adenocarcinoma cell line was purchased from American Type Culture Collection (Rockville, MD, U.S.A.). The cells were cultured in McCoy's 5a medium (Sigma-Aldrich Corporation, MO, U.S.A.) supplemented with 10% (v/v) fetal bovine serum (Roche Diagnostics KK, Tokyo, Japan).
Sixty of 5-week-old male athymic nude mice (BALB/c nu/nu) were purchased from Charles River Japan, Inc. (Yokohama, Japan). All mice were kept for 9 days in the animal facility of Kamakura Research Laboratories of Chugai Pharmaceutical Co., Ltd. before subjection to the experiment.
Capecitabine was dissolved by the 40 milli mol/L citrate buffered-5% Gum arabic solution (pH 6.0; Chugai Pharmaceutical Co., Ltd.).
The in vivo evaluation procedure for anticancer drugs was based on the methods described by Plowman, et al. (1997) for xenograft models. See, “Anticancer Drug Development Guide: Preclinical Screening, Clinical Trials, and Approval, Teicher B (ed) pp. 101-125, specifically Chap. 6, “Human Tumor Xenograft Models in NCI Drug Development”, hereby incorporated by reference. A single cell suspension of HT-29 (1.1×10^7 cells per mouse) was inoculated subcutaneously into the right flank of each mouse. The tumor volume was estimated by using the equation ab^2/2, where a and b represent tumor length and width, respectively. Mice bearing tumors of between 172 and 282 mm^3 were selected on day 10 after tumor inoculation and were randomly divided into 7 groups, consisting of 6 mice each. Mean tumor volume and body weight of the selected mice were 217 mm^3 and 25.0 g respectively. Drug administration was initiated after mice were divided into groups. […] Capecitabine (359 mg/kg or 539 mg/kg) and its vehicle were administered orally. Tumor volume and body weight of each mouse were measured twice a week. […] Tumor growth inhibition was calculated using the equation (1-ΔT/ΔC)×100, where ΔT represents the difference in tumor volume from the initial treatment date of the treated group and ΔC represents the difference in tumor volume from the initial treatment date of the vehicle group.

[2] = Maximum tolerated dose (neither lethality nor more than 20% body weight loss) in mice; conditions: BALB/c nu/nu (athymic nude), mouse, in vivo, dose with neither lethality nor more than 20% body weight loss
Description: The in vivo evaluation procedure for anticancer drugs was based on the methods described by Plowman, et al. (1997) for xenograft models. See, “Anticancer Drug Development Guide: Preclinical Screening, Clinical Trials, and Approval, Teicher B (ed) pp. 101-125, specifically Chap. 6, “Human Tumor Xenograft Models in NCI Drug Development”, hereby incorporated by reference.
See, “Anticancer Drug Development Guide: Preclinical Screening, Clinical Trials, and Approval, Teicher B (ed) pp. 101-125, specifically Chap. 6, “Human Tumor Xenograft Models in NCI Drug Development”, hereby incorporated by reference.
The in vivo evaluation procedure for anticancer drugs was based on the methods described by Plowman, et al. (1997) for xenograft models. See, “Anticancer Drug Development Guide: Preclinical Screening, Clinical Trials, and Approval, Teicher B (ed) pp. 101-125, specifically Chap.

[3] = system: Calu-6 human lung cancer xenograft; assay type: in vivo; conditions: day 32 after inoculation
Experimental: The Calu-6 human lung carcinoma cell line was purchased from American Type Culture Collection (MD, U.S.A.). The cells were cultured in Eagle's MEM (Sigma-Aldrich corporation, MO, U.S.A.) supplemented with 0.1 milli mol/L Non-essential amino acids (Invitrogen corporation, CA, U.S.A.), 1 milli mol/L sodium pyruvate (Invitrogen corporation, CA, U.S.A.), and 10% (v/v) fetal bovine serum (Roche Diagnostics KK, Tokyo, Japan).
60 of 5-week-old male athymic nude mice (BALB/c nu/nu) were purchased from Charles River Japan, Inc. (Yokohama, Japan). All mice were kept for 8 days in the animal facility of Kamakura Research Laboratories of Chugai Pharmaceutical Co., Ltd. before subjection to the experiment.
The title compound was synthesized at Kamakura Research Laboratories of Chugai Pharmaceutical Co., Ltd. Irinotecan (Topotecin™, lot. No. EQAZF13) was obtained from Daiichi Pharmaceutical Co., Ltd. (Tokyo, Japan). The title compound was dissolved in dimethyl sulfoxide (DMSO) and diluted into 2.5 % DMSO solution with saline (For Injection; Ohtsuka Pharmaceutical Industry Co., Ltd., Tokushima, Japan) at the date of administration. Irinotecan was diluted with saline at the date of administration.
The in vivo evaluation procedure for anticancer drugs was based on the methods described by Plowman, et al. (1997) for xenograft models. See, “Anticancer Drug Development Guide: Preclinical Screening, Clinical Trials, and Approval, Teicher B (ed) pp. 101-125, specifically Chap. 6, “Human Tumor Xenograft Models in NCI Drug Development”, hereby incorporated by reference. A single cell suspension of Calu-6 (5.7×10^6 cells per mouse) was inoculated subcutaneously into the right flank of each mouse. The tumor volume was estimated by using the equation ab^2/2, where a and b represent tumor length and width, respectively. Mice bearing tumors of between 181 and 326 mm^3 were selected on day 11 after tumor inoculation and were randomly divided into 10 groups, consisting of 5 mice each. […] Drug administration was initiated after mice were randomized and divided into groups. The tide compound (0.375 mg/kg; 0.75 mg/kg; 1.5 mg/kg or 3 mg/kg), irinotecan (80 mg/kg) and each vehicles were administered intravenously. Tumor volume and body weight of each mouse were measured twice a week. […] Tumor growth inhibition was calculated by using the equation (1-ΔT/ΔC)×100, where ΔT represents the tumor volume difference from the initial treatment date of treated group and ΔC represents the tumor volume difference from the initial treatment date of vehicle group.

SMILES: CC[C@H](C)[C@@H]([C@@H](CC(=O)N1CCC[C@H]1[C@H](SC)[C@@H](C)C(=O)N(C)CCc1cccc(O)c1)OC)N(C)C(=O)[C@@H](NC(=O)[C@H](C(C)C)N(C)C)C(C)C [compound of formula (I-A), N-[1-({1-sec-Butyl-4-[2-(2-{[2-(3-hydroxy-phenyl)-ethyl]-methyl-carbamoyl}-1-methylsulfanyl-propyl)-pyrrolidin-1-yl]-2-methoxy-4-oxo-butyl}-methyl-carbamoyl)-2-methyl-propyl]-2-dimethylamino-3-methyl-butyramide]
- reduction of tumor growth ([1]; 3 mg/kg (1/2 MTD) i.v. weekly x3): 76%
- reduction of tumor growth ([1]; 4 mg/kg (2/3 MTD) i.v. weekly x3): 101%
- MTD [2]: 6 mg/kg
- tumor growth inhibition ([3]; 0.375 mg/kg i.v. weekly x3): 11%
- tumor growth inhibition ([3]; 0.75 mg/kg i.v. weekly x3): 21%
- tumor growth inhibition ([3]; 1.5 mg/kg i.v. weekly x3): 41%
- tumor growth inhibition ([3]; 3 mg/kg i.v. weekly x3): 117%
